Laboratory results reported in patent US11331369B2, “Endoparasitic depsipeptides” (Zoetis Services LLC, priority 2017, dated 2022).

System: microfilariae of Dirofilaria immitis
Assay: Dirofilaria immitis, Microfilaria (DiMF) In vitro Assay
Assay type: cell-based
Details: 72 h, read-out: DiMF Minimum Effective Dose (MED), approximately 72 hours incubation, microfilariae assessed for survival or paralysis

Structure (SMILES)	minimal effective concentration [µM]
CC(C)C[C@H]1C(=O)O[C@H](Cc2ccc(Cn3cccc3/C(N)=N/O)cc2)C(=O)N(C)[C@@H](CC(C)C)C(=O)O[C@H](C)C(=O)N(C)[C@@H](CC(C)C)C(=O)O[C@H](Cc2ccc(Cn3cccc3C(N)=NO)cc2)C(=O)N(C)[C@@H](CC(C)C)C(=O)O[C@H](C)C(=O)N1C [Example 9-30, N′-hydroxy-1-[[4-[[(2R,5S,8R,11S,14R,17S,20R,23S)-14-[[4-[[2-[(Z)—N′-hydroxycarbamimidoyl]pyrrol-1-yl]methyl]phenyl]methyl]-5,11,17,23-tetraisobutyl-4,8,10,16,20,22-hexamethyl-3,6,9,12,15,18,21,24-octaoxo-1,7,13,19-tetraoxa-4,10,16,22-tetrazacyclotetracos-2-yl]methyl]phenyl]methyl]pyrrole-2-carboxamidine]	0.001 to 0.01
CC(C)C[C@H]1C(=O)O[C@H](Cc2ccc(Cn3cc(-c4ccccc4)nn3)cc2)C(=O)N(C)[C@@H](CC(C)C)C(=O)O[C@H](C)C(=O)N(C)[C@@H](CC(C)C)C(=O)O[C@H](Cc2ccccc2)C(=O)N(C)[C@@H](CC(C)C)C(=O)O[C@H](C)C(=O)N1C [Example 9-33, (3S,6R,9S,12R,15S,18R,21S,24R)-6-benzyl-3,9,15,21-tetraisobutyl-4,10,12,16,22,24-hexamethyl-18-(4-((4-phenyl-1H-1,2,3-triazol-1-yl)methyl)benzyl)-1,7,13,19-tetraoxa-4,10,16,22-tetraazacyclotetracosan-2,5,8,11,14,17,20,23-octaone]	0.01 to 0.1
CC(C)C[C@H]1C(=O)O[C@H](Cc2ccc(Cn3cc4ccccc4n3)cc2)C(=O)N(C)[C@@H](CC(C)C)C(=O)O[C@H](C)C(=O)N(C)[C@@H](CC(C)C)C(=O)O[C@H](Cc2ccc(Cn3cc4ccccc4n3)cc2)C(=O)N(C)[C@@H](CC(C)C)C(=O)O[C@H](C)C(=O)N1C [Example 9-35, (3S,6R,9S,12R,15S,18R,21S,24R)-6,18-bis(4-((2H-indazol-2-yl)methyl)benzyl)-3,9,15,21-tetraisobutyl-4,10,12,16,22,24-hexamethyl-1,7,13,19-tetraoxa-4,10,16,22-tetraazacyclotetracosan-2,5,8,11,14,17,20,23-octaone]	0.01 to 0.1
CC(C)C[C@H]1C(=O)O[C@H](Cc2ccc(Cn3cc4c(n3)CCC4)cc2)C(=O)N(C)[C@@H](CC(C)C)C(=O)O[C@H](C)C(=O)N(C)[C@@H](CC(C)C)C(=O)O[C@H](Cc2ccc(Cn3cc4c(n3)CCC4)cc2)C(=O)N(C)[C@@H](CC(C)C)C(=O)O[C@H](C)C(=O)N1C [Example 9-42, (3S,6R,9S,12R,15S,18R,21S,24R)-6,18-bis[[4-(5,6-dihydro-4H-cyclopenta[c]pyrazol-2-ylmethyl)phenyl]methyl]-3,9,15,21-tetraisobutyl-4,10,12,16,22,24-hexamethyl-1,7,13,19-tetraoxa-4,10,16,22-tetrazacyclotetracosane-2,5,8,11,14,17,20,23-octaone]	0.01 to 0.1
CC(C)C[C@H]1C(=O)O[C@H](Cc2ccc(Cn3ncc4cccnc43)cc2)C(=O)N(C)[C@@H](CC(C)C)C(=O)O[C@H](C)C(=O)N(C)[C@@H](CC(C)C)C(=O)O[C@H](Cc2ccc(Cn3ncc4cccnc43)cc2)C(=O)N(C)[C@@H](CC(C)C)C(=O)O[C@H](C)C(=O)N1C [Example 9-49, (3S,6R,9S,12R,15S,18R,21S,24R)-6,18-bis(4-((1H-pyrazolo[3,4-b]pyridin-1-yl)methyl)benzyl)-3,9,15,21-tetraisobutyl-4,10,12,16,22,24-hexamethyl-1,7,13,19-tetraoxa-4,10,16,22-tetraazacyclotetracosan-2,5,8,11,14,17,20,23-octaone]	0.001 to 0.01
CC(C)C[C@H]1C(=O)O[C@H](Cc2ccc(CN3CCS(=O)(=O)c4cccnc43)cc2)C(=O)N(C)[C@@H](CC(C)C)C(=O)O[C@H](C)C(=O)N(C)[C@@H](CC(C)C)C(=O)O[C@H](Cc2ccc(CN3CCS(=O)(=O)c4cccnc43)cc2)C(=O)N(C)[C@@H](CC(C)C)C(=O)O[C@H](C)C(=O)N1C [Example 9-62, (3S,6R,9S,12R,15S,18R,21S,24R)-6,18-bis(4-((1,1-dioxido-2,3-dihydro-4H-pyrido[3,2-b][1,4]thiazin-4-yl)methyl)benzyl)-3,9,15,21-tetraisobutyl-4,10,12,16,22,24-hexamethyl-1,7,13,19-tetraoxa-4,10,16,22-tetraazacyclotetracosan-2,5,8,11,14,17,20,23-octaone]	0.01 to 0.1
CC(C)C[C@H]1C(=O)O[C@H](Cc2ccc(CN3CCOc4cccnc43)cc2)C(=O)N(C)[C@@H](CC(C)C)C(=O)O[C@H](C)C(=O)N(C)[C@@H](CC(C)C)C(=O)O[C@H](Cc2ccc(CN3CCOc4cccnc43)cc2)C(=O)N(C)[C@@H](CC(C)C)C(=O)O[C@H](C)C(=O)N1C [Example 9-64, (3S,6R,9S,12R,15S,18R,21S,24R)-6,18-bis[[4-(2,3-dihydropyrido[3,2-b][1,4]oxazin-4-ylmethyl)phenyl]methyl]-3,9,15,21-tetraisobutyl-4,10,12,16,22,24-hexamethyl-1,7,13,19-tetraoxa-4,10,16,22-tetrazacyclotetracosane-2,5,8,11,14,17,20,23-octaone]	0.01 to 0.1
CC(C)C[C@H]1C(=O)O[C@H](C)C(=O)N(C)[C@@H](CC(C)C)C(=O)O[C@H](Cc2ccccc2)C(=O)N(C)[C@@H](CC(C)C)C(=O)O[C@H](C)C(=O)N(C)[C@@H](CC(C)C)C(=O)O[C@@H](Cc2ccc(CN3CCCCC3)cc2)C(=O)N1C [Example 10-2, (3S,6R,9S,12R,15S,18S,21S,24R)-6-benzyl-3,9,15,21-tetraisobutyl-4,10,12,16,22,24-hexamethyl-18-(4-(piperidin-1-ylmethyl)benzyl)-1,7,13,19-tetraoxa-4,10,16,22-tetraazacyclotetracosan-2,5,8,11,14,17,20,23-octaone]	0.01 to 0.1
CC(C)C[C@H]1C(=O)O[C@H](Cc2ccc(CN3CCN(C(=O)OC(C)(C)C)CC3)cc2)C(=O)N(C)[C@@H](CC(C)C)C(=O)O[C@H](C)C(=O)N(C)[C@@H](CC(C)C)C(=O)O[C@H](Cc2ccccc2)C(=O)N(C)[C@@H](CC(C)C)C(=O)O[C@H](C)C(=O)N1C [Example 10-9, tert-butyl 4-(4-(((2R,5S,8R,11S,14R,17S,20R,23S)-14-benzyl-5,11,17,23-tetraisobutyl-4,8,10,16,20,22-hexamethyl-3,6,9,12,15,18,21,24-octaoxo-1,7,13,19-tetraoxa-4,10,16,22-tetraazacyclotetracosan-2-yl)methyl)benzyl)piperazine-1-carboxylate]	0.01 to 0.1
CC(C)C[C@H]1C(=O)O[C@H](Cc2ccc(CN3CCN(S(C)(=O)=O)CC3)cc2)C(=O)N(C)[C@@H](CC(C)C)C(=O)O[C@H](C)C(=O)N(C)[C@@H](CC(C)C)C(=O)O[C@H](Cc2ccccc2)C(=O)N(C)[C@@H](CC(C)C)C(=O)O[C@H](C)C(=O)N1C [Example 10-10, (3S,6R,9S,12R,15S,18R,21S,24R)-6-benzyl-3,9,15,21-tetraisobutyl-4,10,12,16,22,24-hexamethyl-18-(4-((4-(methylsulfonyl)piperazin-1-yl)methyl)benzyl)-1,7,13,19-tetraoxa-4,10,16,22-tetraazacyclotetracosan-2,5,8,11,14,17,20,23-octaone]	0.01 to 0.1
